According to patent US11445912B2, “Robust myocardial blood oxygen level dependent magnetic resonance imaging with long acting coronary vasodilators” (Cedars-Sinai Medical Center, priority 2015, dated 2022):
Where two headings read alike, the source gives them in different places.

How the values were obtained:
[1] = cited from earlier work; for terminal half-life: extended vasodilatory state
[2] = system: dog with chronic infarction; experiment: 13N ammonia PET myocardial perfusion reserve in infarcted animal (Example 2); type: in vivo; settings: PET at 2 minutes post regadenoson
Procedure: Image acquisition: Human studies were performed on a 3.0 T clinical MM system (MAGNETOM Verio®, Siemens Healthcare, Erlangen, Germany) and the animals were studied on a 3T whole body PET MR system (Biograph mMR, Siemens Healthcare, Erlangen, Germany). In all subjects, BOLD images were acquired with a commercially available 2D T2 mapping sequence {Giri, 2009 #820}. In all studies, after localization and shimming, rest BOLD images were acquired under baseline followed by a bolus regadenoson injection. Post regadenoson administration, BOLD CMR images were acquired between 2 to 30 minutes after regadenoson injection with an interval of 1-5 minutes depending on the physiological and imaging condition. In the animal with chronic infarction, simultaneous ^13N ammonia PET images were acquired at 2 minutes post regadenoson administration to validate the hyperemic response from regadenoson. In addition, LGE images were acquired to identify the infarcted territories after all BOLD acquisitions were completed. Block representations of imaging protocols are illustrated in FIG. 5. […]
In addition, simultaneously acquired quantitative PET images were used to derive myocardial perfusion reserve (MPR) with a clinical validated software (QPET, Cedars-Sinai Medical Center, Los Angeles) and to validate the reduced MPR in the infarcted myocardium.

infarcted dogs [3] = experiment: 13N-NH3 PET myocardial perfusion reserve, remote vs affected zones (Example 3); type: in vivo
Procedure: (§1) Intact (n=7) and infarcted (n=2) dogs were studied in a hybrid PET/MR system. 2D BOLD (T2 maps), LGE and ^13N—NH3 PET images were acquired at rest and at post-regadenoson administration (p.r.a.). T2 maps post-regadenoson administration (p.r.a.) were repeatedly acquired over 30 mins and were registered to T2 maps at rest. These time-dependent T2 maps were then used to model the coronary relaxation as T2(t)=T2o+ΔT2max exp(−t/τ), where T2o, ΔT2max and τ are fit parameters with T2o=T2 at rest; ΔT2max=maximal T2 change from rest; and τ=time constant of coronary relaxation. Maximum BOLD response from CRM was estimated (MBRCRM=ΔT2max/T2o×100%) and compared to conventional myocardial BOLD response [MBRcon=(T2^2min−Rest T2)/Rest T2×100%, where T2^2min=myocardial T2 at 2 min p.r.a and Rest T2=T2 prior to regadenoson injection] using a regression model. In infarcted dogs, affected zones were identified using Late Gadolinium Enhancement (LGE). BOLD contrast-to-noise ratio (CNR) between remote and affected zones (CNR=(μMBRRemote−μMBRAffected)/σMBRRemote, where μ and σ are the mean and std dev) were estimated for MBRCRM and MBRcon and compared. MBRs were validated with perfusion reserve from PET myocardial perfusion reserve (MPR).

Canines [4] = experiment: 13N-ammonia PET myocardial blood flow at rest and post regadenoson, PET/MR (Example 1); type: in vivo
Procedure: (§2) Canines (n=7) were studied in a PET/MR system. MR acquisitions were used to generate short-axis 2D T2 maps; and the PET acquisitions following ^[…]-ammonia infusion were used to quantify myocardial blood flow (MBF). Initially, 2D T2 maps and PET signals were acquired at rest. Subsequently, regadenoson (2.5 μg/kg) was administrated. T2 maps were acquired at 2- and 10-mins p.r.a and PET signals were acquired at 10-mins p.r.a. Standard deviation (a) of myocardial T2 values was measured at rest, 2- and 10-mins p.r.a from T2 maps and were used to determine Myocardial BOLD Variability (MBV, defined as σT2(stress)/σT2(rest)) at 2- and 10-min p.r.a. Similarly, using the mean T2 values, Myocardial BOLD Response (MBR, defined as T2(stress)/T2(rest)) was computed at 10-mins p.r.a. PET images were analyzed with qPET software to determine MBF and MPR at rest and 10-mins p.r.a and were regressed against MBR.

[5] = system: dog with chronic infarction; experiment: Repeated BOLD CMR, coronary dynamic parameters in remote and affected myocardium (Example 2); type: in vivo
Procedure: (§3) BOLD images were acquired at different time points before and after regadenoson administration to sample the rest and stress images, respectively. After bolus regadenoson injection, multiple stress images were acquired to sample the coronary dynamics curve for 30 minutes. All stress images were registered to the rest images with a non-rigid motion correction algorithm (Avants B B, Tustison N J, Song G, Cook P A, Klein A, Gee J C. A reproducible evaluation of ANTs similarity metric performance in brain image registration. Neuroimage 2011; 54:2033-44) to correct for motion-induced miss match between acquisitions. Motion corrected images were used to extract the CDPs throughout the stress period using a mono-exponential model (Felmlee M A, Morris M E, Mager D E. Mechanism-based pharmacodynamic modeling. Methods in molecular biology 2012; 929:583-600) (T2(t)=T2o+ΔT2max exp(−t/τ)). A flow chart of the experimental setup is depicted in FIG. 4.
(§4) In healthy volunteers and intact dogs, global CDPs were extracted from the myocardium. Maximum BOLD response was derived with CDPs (MBRCDP=ΔT2max/T2o×100%) and compared with conventional myocardial BOLD response (MBRcon), which was derived as the T2 elevation from rest to 2 minutes after regadenoson administration (MBRconv=[(StressT2^2min/Rest T2)−1)×100%]. In the animals with coronary impairment, CDPs were measured in segmental and pixel-wise manner. Pixel-wised CDPs between remote and affected territories were segmented using SVMs to investigate the capability of separating diseased myocardium from the remote regions. In addition, CDPs were derived from subsets of BOLD images with different starting time points to probe the optimized setup of detecting affected territories. Details of each step are described in the following sections.
(§5) Experimental Subjects and animal preparation: We studied healthy human volunteers (n=6), intact dogs (n=7) and dogs with chronic infarctions (n=1). During imaging studies in animals, all animals were mechanically ventilated and anesthetized with propofol. In the dog with chronic infarction, the animal underwent an open chest ischemia reperfusion protocol (3 hours of ischemia followed by reperfusion), followed by 8-week recovery prior to imaging.
Image acquisition: Human studies were performed on a 3.0 T clinical MM system (MAGNETOM Verio®, Siemens Healthcare, Erlangen, Germany) and the animals were studied on a 3T whole body PET MR system (Biograph mMR, Siemens Healthcare, Erlangen, Germany). In all subjects, BOLD images were acquired with a commercially available 2D T2 mapping sequence {Giri, 2009 #820}. In all studies, after localization and shimming, rest BOLD images were acquired under baseline followed by a bolus regadenoson injection. […]

Canines [6] = experiment: Myocardial BOLD CMR, 2D T2 maps post regadenoson (Example 1); type: in vivo
Procedure: as §2

intact dogs [7] = experiment: Repeated BOLD CMR with coronary relaxation model (Example 3); type: in vivo
Procedure: as §1

healthy human volunteers = experiment: Repeated BOLD CMR, coronary dynamic parameters from mono-exponential model (Example 2); type: in vivo; settings: global myocardium
Procedure: as §3, §4, §5
(§6) Image acquisition: Human studies were performed on a 3.0 T clinical MM system (MAGNETOM Verio®, Siemens Healthcare, Erlangen, Germany) and the animals were studied on a 3T whole body PET MR system (Biograph mMR, Siemens Healthcare, Erlangen, Germany). In all subjects, BOLD images were acquired with a commercially available 2D T2 mapping sequence {Giri, 2009 #820}. In all studies, after localization and shimming, rest BOLD images were acquired under baseline followed by a bolus regadenoson injection. Post regadenoson administration, BOLD CMR images were acquired between 2 to 30 minutes after regadenoson injection with an interval of 1-5 minutes depending on the physiological and imaging condition. In the animal with chronic infarction, simultaneous ^13N ammonia PET images were acquired at 2 minutes post regadenoson administration to validate the hyperemic response from regadenoson. In addition, LGE images were acquired to identify the infarcted territories after all BOLD acquisitions were completed. Block representations of imaging protocols are illustrated in FIG. 5. Imaging parameters are listed as the following: T2 mapping: TR/TE=2.9 ms/1.1 ms, iPAT=2, partial Fourier=3/4, FA=35°, BW=1184 Hz/pixel, 86 lines per heartbeat (simulated rate […]), trigger pulse=4, FOV=288×360 mm^2, matrix size=154×192, and voxel size=2.5×1.7×6.0 mm^3, T2 preparation (as TEs)=0, 24, 55 ms.
(§7) Image Processing: The series of BOLD images acquired post regadenoson administration were aligned using the advanced normalization tools (ANTS software). Rest images were used as the reference for registration. […]

intact dogs [8] = experiment: as above; type: in vivo; settings: global myocardium
Procedure: as §3, §4, §5, §6, §7

intact dogs [9] = experiment: 13N-NH3 PET myocardial perfusion reserve (Example 3); type: in vivo; settings: p.r.a
Procedure: as §1

infarcted dogs [10] = experiment: Repeated BOLD CMR with coronary relaxation model, remote vs affected zones (Example 3); type: in vivo
Procedure: as §1

[11] = 10-min post regadenoson administration, 2.5 μg/kg
[12] = affected (infarcted) myocardium

SMILES: CCNC(=O)[C@H]1O[C@@H](n2cnc3c(N)nc(C#CC[C@H]4CC[C@H](C(=O)OC)CC4)nc32)[C@H](O)[C@@H]1O [apadenoson]
- terminal half-life [1]: 5 min

SMILES: Nc1nc(N/N=C/C2CCCCC2)nc2c1ncn2[C@@H]1O[C@H](CO)[C@@H](O)[C@H]1O [binodenoson]
- terminal half-life [1]: 10 to 120 min

SMILES: OCCN(CCO)c1nc(N2CCCCC2)c2nc(N(CCO)CCO)nc(N3CCCCC3)c2n1 [dipyridamole]
- terminal half-life ([1]; units printed within the range): 40 to 600 min

SMILES: CNC(=O)c1cnn(-c2nc(N)c3ncn([C@@H]4O[C@H](CO)[C@@H](O)[C@H]4O)c3n2)c1 [regadenoson]
- myocardial perfusion reserve (MPR) ([2]; infarcted territories): 1.9
- myocardial perfusion reserve (MPR) ([2]; remote myocardium): 3.7
- MPRaffected (PET) (infarcted dogs [3]; Affected region): 1.9±0.7
- MPRremote (PET) (infarcted dogs [3]; Remote region): 3.7±0.6
- myocardial blood flow relative to rest (Canines [4]; 10-15 minutes post regadenoson infusion): above 2 fold
- myocardial blood flow (MBF) (Canines [4]; [11]): 1.8 ± 0.9 mL/min/g
- coronary relaxation time constant (τ) ([5]; Remote myocardium): 29.6 min
- maximum T2 response (ΔT2max) ([5]; Remote myocardium): 5.4 ms
- coronary relaxation time constant (τ) [5, 12]: 54.09 min
- maximum T2 response (ΔT2max) [5, 12]: 1.6 ms
- Myocardial T2 (Canines [6]; [11]): 40.4 ± 1.7 ms
- T2 elevation relative to rest (Canines [6]; 10 min post regadenoson administration): 9%
- MBRCRM (ΔT2max/T2o×100%) (intact dogs [7]): 27±16%
- MBRcon ((T2 2min−Rest T2)/Rest T2×100%) (intact dogs [7]; 2 min p.r.a): 12±6%
- ΔT2max (maximal T2 change from rest) (intact dogs [7]; CRM fit): 14.7 ± 5.8 ms
- τ (time constant of coronary relaxation) (intact dogs [7]; CRM fit): 35.5 ± 26.8 min
- MBRCDP (ΔT2max/T2o×100%) (healthy human volunteers): 26.5%
- MBRcon (T2 elevation from rest to 2 minutes after regadenoson) (healthy human volunteers): 12.0%
- ΔT2max (maximum BOLD stimulation amplitude) (healthy human volunteers): 14.7 ms
- τ (coronary relaxation time constant) (healthy human volunteers): 35.6 min
- MBRCDP (ΔT2max/T2o×100%) (intact dogs [8]): 25.8%
- MBRcon (T2 elevation from rest to 2 minutes after regadenoson) (intact dogs [8]): 10.1%
- ΔT2max (maximum BOLD stimulation amplitude) (intact dogs [8]): 8.6 ms
- τ (coronary relaxation time constant) (intact dogs [8]): 38.5 min
- PET myocardial perfusion reserve (MPR) (intact dogs [9]): 3.0±0.6
- terminal half-life [1]: 33 to 108 min
- second phase of pharmacological half-life ([1]; in vivo): approximately 30 minutes
- MBRCRM (infarcted dogs [10]; Affected region): 1±10%
- MBRcon (infarcted dogs [10]; Affected region): 5±7%
- MBRCRM (infarcted dogs [10]; Remote region): 27±6%
- MBRcon (infarcted dogs [10]; Remote region): 15±5%
